How the values were obtained:
Assay type in all cases: physicochemical
[1] = Bulk density, graduated cylinder
[2] = Tapped density, Caleva tapped density tester; details: after tapping
Experimental: The artesunate powders were then passed through a No. 18, 1.00 mm sieve and then added to a 10 mL Cole Parmer graduated cylinder. The graduated cylinder containing the artesunate powders was placed on a Caleva tapped density tester. The samples in the graduated cylinder were then subjected to the following sequence: 10 taps, 500 additional taps, 1250 additional taps, and 1250 additional taps. A volume was taken at the end of each set of taps, and when the volume was consistent for two sets in a row, the measurement was terminated. This final volume was then used to calculate the tapped density. Two replicate measurements were taken, and an average value was calculated.

[3] = Angle of repose, USP <1174>
Experimental: Angle of repose analyses were performed on artesunate powders based upon USP <1174> and under controlled relative humidity conditions. Polytetrafluoroethylene (PTFE) funnels with 8, 10 and 12 mm openings (i.e., Funnel 1, Funnel 2 and Funnel 3, respectively) were used in conjunction with a stainless steel receiving cylinder (Ø=30 mm). Powder samples were placed in the funnel while the funnel opening was closed with a glass slide. Once all the sample powder was loaded in the funnel, the glass slide was removed to allow powder to land on the cylinder below. The top and side of the funnel were tapped to enable the sample powder to drop down. The funnel height was maintained approximately 2-4 cm from the top of the powder pile to minimize the impact of falling powder on the tip of the cone. After the powder cone was built, height of the material forming the cone (h) and the radius (r) of the base were measured by a metal ruler. The angle of repose (θ) was calculated as follows: tan (θ)=h/r. Results were only considered valid when a symmetrical cone of powder was formed. Triplicate tests were attempted for each size of the funnels with the same amount of material being used.

[4] = Static charge, Newtry static meter
Experimental: Static charge measurements were performed using a Newtry static meter. The powders were accumulated onto a piece of weigh paper and the surface gently leveled. The static meter was held approximately 25 millimeters from the surface of the material to obtain a reading. Three replicate measurements were taken, and an average was calculated.

[5] = Dynamic Vapor Sorption (DVS) moisture absorbance; details: 25 °C
Experimental: The instruments were calibrated with standard weights and a sodium bromide standard for humidity. One sample was equilibrated 50% RH for at least 5 days prior to analysis, while the other sample was equilibrated to 20% RH for at least 5 days prior to analysis. Approximately 10 to 20 mg of the powder samples were loaded into metal-coated quartz pans for analysis. The samples were analyzed at 25° C. in 10% RH steps from 5 to 95% RH (adsorption cycle) and from 95 to 5% RH (desorption cycle). The movement from one step to the next occurred either after satisfying the equilibrium criterion of 0.01% weight change in 30 minutes or, if the equilibrium criterion was not met, after 90 minutes. The percent weight change values were calculated using Microsoft Excel®2016. The results of this example are provided in Tables 6 and 7 and depicted in FIG. 1 (Sample Equilibrated to 20% RH) and FIG. 2 (Sample Equilibrated to 50% RH).

[6] = 10% RH exposure, at least five days
[7] = 20% RH exposure, at least five days
[8] = 30% RH exposure, at least five days
[9] = 40% RH exposure, at least five days
[10] = 50% RH exposure, at least five days

C[C@H]1[C@H](OC(=O)CCC(=O)O)O[C@@H]2O[C@@]3(C)CC[C@H]4[C@H](C)CC[C@@H]1[C@@]24OO3 [artesunate powder, 4-oxo-4-[[(1R,4S,5R,8S,9R,10S,12R,13R)-1,5,9-trimethyl-11,14,15,16-tetraoxatetracyclo[10.3.1.0^4,13.0^8,13]hexadecan-10-yl]oxy]butanoic acid]
Average Bulk Density ([1]; 20% RH exposure ~24 h): 0.203 g/mL
Bulk Density 1 ([1]; 20% RH exposure ~24 h): 0.193 g/mL
Bulk Density 2 ([1]; 20% RH exposure ~24 h): 0.231 g/mL
Average Bulk Density ([1]; 50% RH exposure ~24 h): 0.203 g/mL
Bulk Density 1 ([1]; 50% RH exposure ~24 h): 0.200 g/mL
Bulk Density 2 ([1]; 50% RH exposure ~24 h): 0.208 g/mL
Average Bulk Density (Tapped Densities of Powder Samples) ([2]; 20% RH exposure ~24 h): 0.303 g/mL
Bulk Density 1 (Tapped Densities of Powder Samples) ([2]; 20% RH exposure ~24 h): 0.307 g/mL
Bulk Density 2 (Tapped Densities of Powder Samples) ([2]; 20% RH exposure ~24 h): 0.318 g/mL
Bulk Density 3 (Tapped Densities of Powder Samples) ([2]; 20% RH exposure ~24 h): 0.283 g/mL
Average Bulk Density (Tapped Densities of Powder Samples) ([2]; 35% RH exposure ~24 h): 0.318 g/mL
Bulk Density 1 (Tapped Densities of Powder Samples) ([2]; 35% RH exposure ~24 h): 0.317 g/mL
Bulk Density 2 (Tapped Densities of Powder Samples) ([2]; 35% RH exposure ~24 h): 0.300 g/mL
Average Bulk Density (Tapped Densities of Powder Samples) ([2]; 50% RH exposure ~24 h): 0.317 g/mL
Bulk Density 1 (Tapped Densities of Powder Samples) ([2]; 50% RH exposure ~24 h): 0.320 g/mL
Bulk Density 2 (Tapped Densities of Powder Samples) ([2]; 50% RH exposure ~24 h): 0.312 g/mL
Bulk Density 3 (Tapped Densities of Powder Samples) ([2]; 50% RH exposure ~24 h): 0.319 g/mL
angle of repose ([3]; 35% RH, Average of Funnels 1-3): 39 degrees
angle of repose ([3]; 35% RH, Funnel 1 (8 mm opening)): 35 degrees
angle of repose ([3]; 35% RH, Funnel 2 (10 mm opening)): 38 degrees
angle of repose ([3]; 35% RH, Funnel 3 (12 mm opening)): 45 degrees
flow properties based on USP 1174 ([3]; 35% relative humidity): acceptable
angle of repose ([3]; 50% RH, Average of Funnels 1-3): 43 degrees
angle of repose ([3]; 50% RH, Funnel 1 (8 mm opening)): 42 degrees
angle of repose ([3]; 50% RH, Funnel 2 (10 mm opening)): 45 degrees
angle of repose ([3]; 50% RH, Funnel 3 (12 mm opening)): 42 degrees
flow property based on USP 1174 ([3]; 50% relative humidity): passable but may hang up
Average Static Reading [4, 6]: 0.36 kV
Static Reading 1 [4, 6]: 0.40 kV
Static Reading 2 [4, 6]: 0.38 kV
Static Reading 3 [4, 6]: 0.30 kV
Average Static Reading ([4]; 11% RH): 0.36 kV
Average Static Reading [4, 7]: 0.13 kV
Static Reading 1 [4, 7]: 0.12 kV
Static Reading 2 [4, 7]: 0.13 kV
Static Reading 3 [4, 7]: 0.13 kV
Average Static Reading ([4]; 22% RH): 0.13 kV
Average Static Reading [4, 8]: −0.04 kV
Static Reading 1 [4, 8]: −0.04 kV
Static Reading 2 [4, 8]: −0.04 kV
Static Reading 3 [4, 8]: −0.04 kV
Average Static Reading [4, 9]: 0.01 kV
Static Reading 1 [4, 9]: 0.02 kV
Static Reading 2 [4, 9]: 0.01 kV
Static Reading 3 [4, 9]: 0.00 kV
Average Static Reading [4, 10]: −0.05 kV
Static Reading 1 [4, 10]: −0.05 kV
Static Reading 2 [4, 10]: −0.05 kV
Static Reading 3 [4, 10]: −0.05 kV
% change (DVS) ([5]; sample equilibrated to 20% RH, RH step 95, total 360 min): 100.08%
% change (DVS) ([5]; sample equilibrated to 20% RH, adsorption, RH step 5, total 0 min): 100.00%
% change (DVS) ([5]; sample equilibrated to 20% RH, adsorption, RH step 5, total 60 min): 100.00%
% change (DVS) ([5]; sample equilibrated to 20% RH, adsorption, RH step 15, total 90 min): 100.02%
% change (DVS) ([5]; sample equilibrated to 20% RH, adsorption, RH step 25, total 120 min): 100.02%
% change (DVS) ([5]; sample equilibrated to 20% RH, adsorption, RH step 35, total 150 min): 100.03%
% change (DVS) ([5]; sample equilibrated to 20% RH, adsorption, RH step 45, total 180 min): 100.03%
% change (DVS) ([5]; sample equilibrated to 20% RH, adsorption, RH step 55, total 210 min): 100.03%
% change (DVS) ([5]; sample equilibrated to 20% RH, adsorption, RH step 65, total 240 min): 100.04%
% change (DVS) ([5]; sample equilibrated to 20% RH, adsorption, RH step 75, total 270 min): 100.05%
% change (DVS) ([5]; sample equilibrated to 20% RH, adsorption, RH step 85, total 300 min): 100.06%
% change (DVS) ([5]; sample equilibrated to 20% RH, desorption, RH step 5, total 630 min): 100.04%
% change (DVS) ([5]; sample equilibrated to 20% RH, desorption, RH step 15, total 600 min): 100.04%
% change (DVS) ([5]; sample equilibrated to 20% RH, desorption, RH step 25, total 570 min): 100.04%
% change (DVS) ([5]; sample equilibrated to 20% RH, desorption, RH step 35, total 540 min): 100.04%
% change (DVS) ([5]; sample equilibrated to 20% RH, desorption, RH step 45, total 510 min): 100.05%
% change (DVS) ([5]; sample equilibrated to 20% RH, desorption, RH step 55, total 480 min): 100.06%
% change (DVS) ([5]; sample equilibrated to 20% RH, desorption, RH step 65, total 450 min): 100.06%
% change (DVS) ([5]; sample equilibrated to 20% RH, desorption, RH step 75, total 420 min): 100.06%
% change (DVS) ([5]; sample equilibrated to 20% RH, desorption, RH step 85, total 390 min): 100.07%
% change (DVS) ([5]; sample equilibrated to 50% RH, RH step 95, total 360 min): 100.08%
% change (DVS) ([5]; sample equilibrated to 50% RH, adsorption, RH step 5, total 0 min): 100.00%
% change (DVS) ([5]; sample equilibrated to 50% RH, adsorption, RH step 5, total 30 min): 100.01%
% change (DVS) ([5]; sample equilibrated to 50% RH, adsorption, RH step 15, total 60 min): 100.01%
% change (DVS) ([5]; sample equilibrated to 50% RH, adsorption, RH step 25, total 90 min): 100.01%
% change (DVS) ([5]; sample equilibrated to 50% RH, adsorption, RH step 35, total 120 min): 100.01%
% change (DVS) ([5]; sample equilibrated to 50% RH, adsorption, RH step 45, total 150 min): 100.02%
% change (DVS) ([5]; sample equilibrated to 50% RH, adsorption, RH step 55, total 180 min): 100.02%
% change (DVS) ([5]; sample equilibrated to 50% RH, adsorption, RH step 65, total 240 min): 100.03%
% change (DVS) ([5]; sample equilibrated to 50% RH, adsorption, RH step 75, total 270 min): 100.04%
% change (DVS) ([5]; sample equilibrated to 50% RH, adsorption, RH step 85, total 300 min): 100.05%
% change (DVS) ([5]; sample equilibrated to 50% RH, desorption, RH step 5, total 660 min): 100.02%
% change (DVS) ([5]; sample equilibrated to 50% RH, desorption, RH step 15, total 630 min): 100.02%
% change (DVS) ([5]; sample equilibrated to 50% RH, desorption, RH step 25, total 600 min): 100.02%
% change (DVS) ([5]; sample equilibrated to 50% RH, desorption, RH step 35, total 570 min): 100.02%
% change (DVS) ([5]; sample equilibrated to 50% RH, desorption, RH step 45, total 540 min): 100.03%
% change (DVS) ([5]; sample equilibrated to 50% RH, desorption, RH step 55, total 510 min): 100.04%
% change (DVS) ([5]; sample equilibrated to 50% RH, desorption, RH step 65, total 480 min): 100.05%
% change (DVS) ([5]; sample equilibrated to 50% RH, desorption, RH step 75, total 450 min): 100.05%
% change (DVS) ([5]; sample equilibrated to 50% RH, desorption, RH step 85, total 420 min): 100.06%

Source: patent US20250339400A1, “ARTESUNATE POWDERS, PHARMACEUTICAL COMPOSITIONS AND METHODS OF MANUFACTURE” (AMIVAS, INC., priority 2024, published 2025)
